Like-named read-outs stand apart in the source and are kept apart here.
Key:
Type in all cases: in vivo
[1] = test system: Phaedon cochleariae-Larven; test: Critical concentration test / root-systemic action, Phaedon cochleariae larvae; conditions: Wirkstoffkonzentration 20 ppm im Boden, Kohl (Brassica oleracea), Besatz nach 7 Tagen, Auswertung nach weiteren 2 Tagen
From the text: Grenzkonzentrations-Test / Wurzelsystemische Wirkung Testinsekt: Phaedon cochleariae-Larven Lösungsmittel: 3 Gewichtsteile Aceton
Emulgator: 1 Gewichtsteil Alkylarylpolyglykolether
(§1) Zur Herstellung einer zweckmäßigen Wirkstoffzubereitung vermischt man 1 Gewichtsteil Wirkstoff mit der angegebenen Menge Lösungsmittel, gibt die angegebene Menge Emulgator zu und verdünnt das Konzentrat mit Wasser auf die gewünschte Konzentration.
(§2) Die Wirkstoffzubereitung wird innig mit Boden vermischt. Dabei spielt die Konzentration des Wirkstoffs in der Zubereitung praktisch keine Rolle, entscheidend ist allein die Wirkstoffgewichtsmenge pro Volumeneinheit Boden, welche in ppm (= mg/1) angegeben wird. Man füllt den behandelten Boden in Töpfe und bepflanzt diese mit Kohl (Brassica oleracea). Der Wirkstoff kann so von den Pflanzenwurzeln aus dem Boden aufgenommen und in die Blätter transportiert werden.
(§3) Für den Nachweis des wurzelsystemischen Effektes werden nach 7 Tagen ausschließlich die Blätter mit den obengenannten Testtieren besetzt. Nach weiteren 2 Tagen erfolgt die Auswertung durch Zählen oder Schätzen der toten Tiere. Aus den Abtötungszahlen wird die wurzelsystemische Wirkung des Wirkstoffs abgeleitet. Sie ist 100 %, wenn alle Testtiere abgetötet sind und 0 %, wenn noch genau so viele Testinsekten leben wie bei der unbehandelten Kontrolle.

Nephotettix cincticeps = test: Nephotettix test (rice seedlings dipped in the active compound preparation); conditions: for mortality at 0.0001 %: Nephotettix cincticeps, 144 h, read-out: Wirkung (Abtötung in %)
From the text: (§4) Lösungsmittel: 7 Gewichtsteile Dimethylformamid Emulgator: 1 Gewichtsteil Alkylarylpolyglykolether
Zur Herstellung einer zweckmäßigen Wirkstoffzubereitung vermischt man 1 Gewichstteil Wirkstoff mit der angegebenen Menge Lösungsmittel und der angegebenen Menge Emulgator und verdünnt das Konzentrat mit Wasser auf die gewünschte Konzentration.
Reiskeimlinge (Oryza sativa) werden durch Tauchen in die Wirkstoffzubereitung der gewünschten Konzentration behandelt und mit der Grünen Reiszikade (Nephotettix cincticeps) besetzt, solange die Keimlinge noch feucht sind.
Nach der gewünschten Zeit wird die Abtötung in % bestimmt. Dabei bedeutet 100 %, daß alle Zikaden abgetötet wurden; 0 % bedeutet, daß keine Zikaden abgetötet wurden.

Myzus persicae = test: Critical concentration test / root-systemic action, Myzus persicae; conditions: Wirkstoffkonzentration 20 ppm im Boden, Kohl (Brassica oleracea), Besatz nach 7 Tagen, Auswertung nach weiteren 2 Tagen; for mortality at 20 µg/mL: Myzus persicae, 48 h, read-out: wurzelsystemische Wirkung
From the text: Grenzkonzentrations-Test / Wurzelsystemische Wirkung Testinsekt: Myzus persicae Lösungsmittel: 3 Gewichtsteile Aceton Emulgator: 1 Gewichtsteil Alkylarylpolyglykolether
as §1, §2, §3

Aphis fabae = test: Aphis test (systemic action, soil drench of bean plants); conditions: 96 h, read-out: Wirkung (Abtötung in %)
Description: Aphis-Test (systemische Wirkung)
as §4
Zur Herstellung einer zweckmäßigen Wirkstoffzubereitung vermischt man 1 Gewichtsteil Wirkstoff mit der angegebenen Menge Lösungsmittel und der angegebenen Menge Emulgator und verdünnt das Konzentrat mit Wasser auf die gewünschte Konzentration.
Mit je 20 ml Wirkstoffzubereitung der gewünschten Konzentration werden Bohnenpflanzen (Vicia faba), die stark von der schwarzen Bohnenlaus (Aphis fabae) befallen sind, angegossen, so daß die Wirkstoffzubereitung in den Boden eindringt, ohne den Sproß zu benetzen. Der Wirkstoff wird von den Wurzeln aufgenommen und in den Sproß weitergeleitet.
Nach der gewünschten Zeit wird die Abtötung in % bestimmt. Dabei bedeutet 100 %, daß alle Blattläuse abgetötet wurden; 0 % bedeutet, daß keine Blattläuse abgetötet wurden.

[2] = test system: Lucilia cuprina resistent-Larven; test: Test with resistant Lucilia cuprina larvae; conditions: 24 h, Wirkstoffkonzentration 100 ppm, nach 24 Stunden, read-out: Abtötung
From the text: Test mit Lucilia cuprina resistent-Larven
Emulgator: 35 Gewichtsteile Ethylenglykolmonomethylether 35 Gewichtsteile Nonylphenolpolyglykolether
Zur Herstellung einer zweckmäßigen Wirkstoffzubereitung vermischt man drei Gewichtsteile Wirkstoff mit sieben Gewichtsteilen des oben angegebenen Gemisches und verdünnt das so erhaltene Konzentrat mit Wasser auf die jeweils gewünschte Konzentration.
Etwa 20 Lucilia cuprina res.-Larven werden in ein Teströhrchen gebracht, welches ca. 1 cm^3 Pferdefleisch und 0,5 ml der Wirkstoffzubereitung enthält. Nach 24 Stunden wird der Abtötungsgrad bestimmt.

[3] = Wirkstoffkonzentration 0,0001 %, nach 6 Tagen, Reiskeimlinge (Oryza sativa) getaucht
[4] = Wirkstoffkonzentration 0,01 %, nach 4 Tagen, Bohnenpflanzen (Vicia faba) angegossen, systemisch

Structure (SMILES) | wurzelsystemische Wirkung [1] | wurzelsystemische Wirkung (Myzus persicae) | mortality at 0.01 % (Aphis fabae; [4]) [%] | mortality at 20 µg/mL (Myzus persicae) [%] | mortality at 100 µg/mL [2] [%] | further results
O=C(C=C1SCCN1Cc1ccc(Cl)nc1)C(F)(F)F [Beispiel 3, 3-(6-Chlor-pyrid-3-yl)-methyl-2-(trifluormethylcarbonylmethylen)-1,3-thiazolidin] | 100% | 100% |  |  |  | Wirkung (Abtötung in %) (Nephotettix cincticeps; [3]): 90%
O=C(C=C1NCCN1Cc1ccc(Cl)nc1)C(F)(F)F [Beispiel 4, 1-(6-Chlor-pyrid-3-yl)-methyl-2-(trifluormethylcarbonylmethylen)-imidazolidin] |  |  | 100 | 100 | 100 | 
O=C(C(C(=O)C(F)(F)F)=C1NCCN1Cc1ccc(Cl)nc1)C(F)(F)F [Beispiel 5, 2-[(Di-trifluormethylcarbonyl)-methylen]-3-(6-chlor-pyrid-3-yl)-methylimidazolidin] |  |  | 100 | 100 | 100 | mortality at 0.0001 % (Nephotettix cincticeps; [3]): 100%
O=C(C=C1NCCCN1Cc1ccc(Cl)nc1)C(F)(F)F [Beispiel 8] |  |  | 100 | 100 | 100 | mortality at 20 µg/mL ([1]; Phaedon, 48 h, read-out: wurzelsystemische Wirkung): 100%
O=C(C(C(=O)C(F)(F)F)=C1NCCCN1Cc1ccc(Cl)nc1)C(F)(F)F [Beispiel 9] |  |  |  |  | 100 | 
O=[N+]([O-])C=C1NCCCS1 [Vergleichssubstanz (A), Tetrahydro-2-nitromethylen-2H-1,3-thiazin, reference compound] | keine Wirkung | keine Wirkung |  |  |  | mortality at 0.01 % (Aphis fabae): 50%; mortality at 0.0001 % (Nephotettix cincticeps): 20%
